Assay results reported in ChEMBL document CHEMBL1201862, “PubChem BioAssay data set” (2004).
Active and inactive are the calls of the source. Rule as the data show it, for most assays here: actives have a measured EC50 and inactives only a lower limit.

What was measured:
[1] = cytotoxicity toward DRD oncogenic fibroblasts, dose response, cell-based, non-viral oncogenic, luminescence (AID 1934); format: functional; settings: Homo sapiens
[2] = Luminescence Cell-Based Dose Response HTS to Identify Inhibitors of 5'UTR Stem-Loop Driven Prion Protein mRNA Translation in H4 Neuroglioblastoma Cells. [Related pubchem assays: 1827 (Project Summary), 1813 (Primary HTS)]; format: functional
[3] = cytotoxicity toward NIH3T3 fibroblasts, dose response, counter-screen, cell-based, ATP luminescence, mouse fibroblasts (AID 2010); format: functional;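 also: cells exposed to compound for about 90 hours before reading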
[4] = Luminescence-based dose response cell-based high throughput screening assay for cytotoxic compounds using the IEC-6 intestinal epithelial cell line. [Related pubchem assays: 1858 (Summary AID.), 1825 (Counterscreen.), 1907 (Confirmation screen.)]; format: functional
BJ [5] = assay: cytotoxicity toward BJ-TERT fibroblasts, dose response, cell-based, RAS-independent, luminescence (AID 1933); format: functional; settings: Homo sapiens
[6] = system: Streptococcus sp. 'group A'; assay: growth inhibition of control SK(-) GAS strain, dose response, counter-screen for streptokinase expression inhibitor project, luminescence, kanamycin, BacTiterGlo, confirmation (AID 1900); format: functional, organism-based
BJ [7] = assay: cells; format: functional, cell-based; settings: Homo sapiens
BJ [8] = assay: cytotoxicity toward BJ-TERT-LT-ST fibroblasts, dose response, cell-based, RAS-independent, luminescence (AID 1935); format: functional; settings: Homo sapiens;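 also: BJ fibroblasts immortalized with TERT plus LT and ST oncogenes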
Streptococcus [9] = assay: Group A Streptococcus viability loss, dose response, counter-screen for streptokinase expression inhibitor project, luminescence, BacTiterGlo (AID 1915); format: functional, organism-based;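 also: potency for reduction of bacterial viability or growth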
[10] = inhibitors of firefly luciferase expression or activity, dose response, H4 neuroglioma cells, luminescence (AID 1990); format: functional, cell-based
[11] = inhibitors of intracellular T. cruzi replication, confirmation, NIH3T3 host cells, beta-gal luminescence (AID 2044); format: functional, cell-based;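 also: intracellular parasites grown in NIH/3T3 mouse fibroblasts as host cells; luminescent beta-galactosidase reporter signal from transgenic T. cruzi replicating inside host cells; inhibitors lower the luminescence signal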
Streptococcus [12] = assay: Streptococcus pyogenes growth inhibition counter-screen, dose response, counter-screen for streptokinase expression inhibitor project, luminescence, BacTiter-Glo, strain UMAA2166 (AID 2477); format: functional, organism-based
Streptokinase A = target: T1, Streptokinase A (Streptococcus pyogenes serotype M1, UniProt P10520); assay: Absorbance Microorganism-Based Dose Response Follow up to Identify Inhibitors of Streptokinase Expression. [Related pubchem assays: 1677 (Project Summary), 1915, 1914, 1902 (Retest at Dose), 1900 (Counter Screen), 1662 (Primary HTS)]; format: functional, Streptococcus pyogenes M1 GAS
T1 sequence (P10520 whole entry): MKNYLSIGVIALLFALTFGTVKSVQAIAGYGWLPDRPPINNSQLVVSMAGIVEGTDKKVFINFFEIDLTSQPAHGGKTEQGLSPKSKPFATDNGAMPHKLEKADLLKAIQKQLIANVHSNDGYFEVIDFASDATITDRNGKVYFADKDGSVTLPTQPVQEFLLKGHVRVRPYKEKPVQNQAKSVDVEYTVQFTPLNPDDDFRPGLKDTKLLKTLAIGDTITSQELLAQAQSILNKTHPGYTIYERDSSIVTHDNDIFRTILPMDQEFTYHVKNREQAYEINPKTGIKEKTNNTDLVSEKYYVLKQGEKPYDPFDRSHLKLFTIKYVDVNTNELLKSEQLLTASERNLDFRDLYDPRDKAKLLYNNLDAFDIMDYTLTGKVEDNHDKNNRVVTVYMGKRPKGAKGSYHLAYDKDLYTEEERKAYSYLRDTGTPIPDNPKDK

[13] = target: T2, Mannose-6-phosphate isomerase (Homo sapiens, UniProt P34949); assay: inhibitors of human PMI, primary screen, biochemical, fluorescence intensity, coupled assay (AID 1209)
T2 sequence (P34949 whole entry): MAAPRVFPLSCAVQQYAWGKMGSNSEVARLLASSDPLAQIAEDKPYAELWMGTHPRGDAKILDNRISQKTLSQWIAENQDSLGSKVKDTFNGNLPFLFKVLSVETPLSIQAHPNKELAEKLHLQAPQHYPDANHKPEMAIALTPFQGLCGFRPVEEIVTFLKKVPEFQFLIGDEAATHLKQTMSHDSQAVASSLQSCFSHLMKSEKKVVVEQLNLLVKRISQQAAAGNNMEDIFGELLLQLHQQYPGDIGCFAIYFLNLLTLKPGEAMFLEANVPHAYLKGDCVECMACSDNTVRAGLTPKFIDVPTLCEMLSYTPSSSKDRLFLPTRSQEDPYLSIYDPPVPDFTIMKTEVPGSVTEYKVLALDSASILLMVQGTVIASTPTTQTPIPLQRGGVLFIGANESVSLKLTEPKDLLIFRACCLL

[14] = target: T2, Mannose-6-phosphate isomerase; assay: human PMI inhibitors, high substrate, primary screen, biochemical, fluorescence intensity, high mannose 6-phosphate (AID 1220)
[15] = Luminescence Cell-Based Dose Confirmation HTS to Identify Activators of 5'UTR Stem-Loop Driven Alpha-Synuclein mRNA Translation in H4 Neuroglioblastoma Cells. [Related pubchem assays: 1829 (Project Summary), 1814 (Primary HTS)]; format: functional
H4 = assay: Luminescence Cell-Based Dose Response HTS to Identify Activators of 5'UTR Stem-Loop Driven Prion Protein mRNA Translation in H4 Neuroglioblastoma Cells. [Related pubchem assays: 1829 (Project Summary), 1814 (Primary HTS)]; format: functional; settings: Homo sapiens
[16] = Luminescence Cell-Based Dose Response HTS to Identify Activators of Luciferase Translation or Activity in H4 […] Cells. [Related pubchem assays: 1829 (Project Summary), 1814 (Primary HTS)]; format: functional

COc1ccccc1-c1nnc(Nc2nc3c(OC)cccc3s2)o1
EC50 [1]: 28.9 µM (inconclusive) | EC50 [2]: 5.65 µM (active) | EC50 [3]: 0.576 µM (active) | IC50 [4]: 0.886 µM (active) | EC50 (BJ [5]): 0.904 µM (active) | EC50 [6]: 1.67 µM (active) | EC50 (BJ [7]): 0.635 µM (active) | EC50 (BJ [8]): 0.457 µM (inconclusive) | EC50 (Streptococcus [9]): > 150 µM (inconclusive) | EC50 [10]: 8.66 µM (inconclusive) | EC50 [11]: 0.559 µM (active)

COc1ccc(S(=O)(=O)c2ccc(NC(=O)c3ccccc3Cl)cc2C#N)cc1
EC50 (Streptococcus [12]): 40.5 µM (active) | EC50 (Streptokinase A): 5.44 µM (active)

c1ccc(-c2cc(N3CCCCCC3)n[nH]2)cc1
IC50 [13]: > 50 µM (not active) | IC50 [14]: > 50 µM (not active) | EC50 [15]: 5.19 µM (active) | EC50 (H4): 9.81 µM (active) | EC50 [16]: 30.9 µM (active)
